According to publication PMC12035805, “A Water-Soluble Aggregation-Induced Emission Photosensitizer with Intrinsic Antibacterial Activity as an Antiplanktonic and Antibiofilm Therapeutic Agent” (Journal of Medicinal Chemistry, 2025):

Experiments:
S. aureus biofilm = test: Photodynamic eradication of biofilm bacteria; type: cell-based, Staphylococcus aureus; conditions: light irradiation at 600 nm for 45 min
Procedure: (§1) For biofilm bacteria, overnight culture of S. aureus or P. aeruginosa was diluted to 1 × 10^5 CFU/mL in TSB (with 1% glucose). Portion of 100 μL of the diluted bacteria culture was added to the wells of a 96-well plate. The plate was incubated under darkness for 24 h at 37 °C. Then, the planktonic bacterial suspensions were removed from the wells. The biofilms were washed with PBS (3 times) to remove any remaining planktonic bacteria. Different concentrations of TPA-1 were dissolved in PBS. TPA-1 solution was added to the biofilms (120 μL for S.aureus, 150 μL for P.aeruginosa). After 20 min of incubation under darkness at 30 °C, the biofilms were kept in the dark or irradiated by 600 nm light (60 mW/cm^2) for 15, 30, and 45 min. After that, the TPA-1 solution was replaced by 120 μL of PBS. The biofilm was then suspended in PBS by scratching, followed by sonication (5 min, ≤42 kHz) and vortex (5 min, 950 rpm). The number of viable bacteria was determined by the plate counting method. All experiments were carried out in triplicate.

[1] = Log P, 1-octanol/water partition; type: physicochemical; conditions: 1-octanol/water (1:1)
Procedure: The log P values of TPA compounds were obtained according to previously reported methods.[66] 1-octanol was first presaturated with water. Equal volume and concentration of TPA-NC-1, TPA-0, and TPA-1 were added to a 1-octanol/water (1:1) mixture and vortexed for 1 min. The mixture was then centrifuged for 5 min at 13,500 rpm. After that, the absorptions of the compound in the 1-octanol and water phases were measured. The concentrations of the compound in both phases were calculated by using the absorption calibration curve of the corresponding compound. Log P = log (concentration of the compound in 1-octanol/concentration of the compound in water).

S. aureus DNA gyrase = biological target: T1, S. aureus DNA gyrase (Staphylococcus aureus, UniProt P0A0K8+P20831); test: S. aureus DNA gyrase supercoiling inhibition assay; type: biochemical; conditions: relaxed pBR322, 37 °C, 30 min, agarose gel
T1 construct: purchased Inspiralis
T1 sequence (P20831 whole entry): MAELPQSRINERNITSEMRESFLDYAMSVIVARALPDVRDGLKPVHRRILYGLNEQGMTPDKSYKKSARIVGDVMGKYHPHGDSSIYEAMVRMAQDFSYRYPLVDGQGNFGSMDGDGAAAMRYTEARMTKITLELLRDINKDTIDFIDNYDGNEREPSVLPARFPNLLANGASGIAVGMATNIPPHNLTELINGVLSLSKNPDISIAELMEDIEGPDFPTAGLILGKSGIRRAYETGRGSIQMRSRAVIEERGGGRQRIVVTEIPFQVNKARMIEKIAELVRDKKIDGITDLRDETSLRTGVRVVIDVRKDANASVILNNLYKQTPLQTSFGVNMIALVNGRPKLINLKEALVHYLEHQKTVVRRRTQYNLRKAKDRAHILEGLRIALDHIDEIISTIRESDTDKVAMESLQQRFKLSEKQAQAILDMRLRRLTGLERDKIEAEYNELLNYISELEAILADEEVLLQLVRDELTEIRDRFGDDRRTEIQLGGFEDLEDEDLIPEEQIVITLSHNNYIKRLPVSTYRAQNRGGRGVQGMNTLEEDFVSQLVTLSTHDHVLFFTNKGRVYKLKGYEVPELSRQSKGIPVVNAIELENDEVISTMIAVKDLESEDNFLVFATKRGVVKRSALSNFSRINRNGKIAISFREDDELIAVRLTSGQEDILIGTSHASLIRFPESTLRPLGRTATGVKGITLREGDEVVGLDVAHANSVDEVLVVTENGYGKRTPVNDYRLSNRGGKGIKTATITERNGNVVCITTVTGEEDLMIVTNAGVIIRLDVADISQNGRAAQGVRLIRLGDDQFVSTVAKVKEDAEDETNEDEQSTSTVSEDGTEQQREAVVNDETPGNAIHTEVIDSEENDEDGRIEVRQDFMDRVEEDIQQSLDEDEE
T1 sequence (P0A0K8 whole entry): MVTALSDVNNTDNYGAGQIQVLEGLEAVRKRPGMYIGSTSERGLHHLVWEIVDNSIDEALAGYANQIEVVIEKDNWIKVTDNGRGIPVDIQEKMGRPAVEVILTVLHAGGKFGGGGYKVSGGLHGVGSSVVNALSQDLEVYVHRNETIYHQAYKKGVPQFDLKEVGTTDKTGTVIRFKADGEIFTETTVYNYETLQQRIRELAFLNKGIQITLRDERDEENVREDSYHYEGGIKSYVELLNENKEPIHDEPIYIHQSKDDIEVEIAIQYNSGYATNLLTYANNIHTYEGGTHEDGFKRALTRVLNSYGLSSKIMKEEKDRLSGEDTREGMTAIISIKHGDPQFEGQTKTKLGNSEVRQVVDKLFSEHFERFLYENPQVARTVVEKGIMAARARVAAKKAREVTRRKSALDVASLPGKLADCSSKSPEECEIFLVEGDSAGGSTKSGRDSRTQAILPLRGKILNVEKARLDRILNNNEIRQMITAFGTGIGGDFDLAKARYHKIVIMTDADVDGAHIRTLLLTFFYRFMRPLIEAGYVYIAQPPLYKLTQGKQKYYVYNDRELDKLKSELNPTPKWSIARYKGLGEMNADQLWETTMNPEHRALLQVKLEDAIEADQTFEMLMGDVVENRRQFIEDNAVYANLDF
Procedure: The assay was conducted using an S. aureus gyrase supercoiling assay kit from Inspiralis. In general, relaxed bacterial plasmid (pBR322), S. aureus gyrase, and different concentrations of TPA-1 were mixed and incubated at 37 °C for 30 min. The mixtures were then quenched and subjected to electrophoresis (1% agarose gel, 75 V, 2 h). The gel image was captured with the Bio-Rad ChemiDoc imaging system.

P. aeruginosa biofilm = test: Photodynamic eradication of biofilm bacteria; type: cell-based, Pseudomonas aeruginosa; conditions: light irradiation at 600 nm for 45 min
Procedure: as §1

## C#CCC[n+]1c(/C=C/c2ccc(-c3ccc(N(c4ccc(OCCC[N+](C)(C)C)cc4)c4ccc(OCCC[N+](C)(C)C)cc4)cc3)s2)sc2ccccc21.[Br-].[Br-].[Br-] [TPA-1]
S. aureus biofilm
  S. aureus biofilm log CFU/mL reduction: 1.18 ± 0.05 log CFU/mL
  S. aureus in the biofilm eradicated: 92% ± 3%
[1]
  logP: -1.6
S. aureus DNA gyrase
  concentration at which the supercoiled DNA band completely disappears: 25 µM
P. aeruginosa biofilm
  P. aeruginosa biofilm log CFU/mL reduction: 2.6 ± 0.2 log CFU/mL
  P. aeruginosa in the biofilm eradicated: 99.8% ± 0.1%
